Measurements: US11986529B2, “Pharmaceutical compositions and related methods of delivery” (priority 2008, dated 2024)
Read-outs that look alike come from different tables or passages of the source. Blank lines part the entries; values can stand above or below the compound they belong to.

Key:
[1] = Intra-jejunal administration to non-anesthetized cannulated rats: plasma cargo levels, AUC, bioavailability; conditions: rat
Description: (§1) Rats are allowed to recover for 4 days before the study and are deprived of food for 18 hours before the start of the study.
(§2) Levels of plasma dextran following administration of dextran in formulation or in saline were compared to the levels of plasma dextran after intravenous administration. Exposure values, AUC (0-90), were determined for jejunal and intravenous administration and the absolute bioavailability (aBA) was calculated according to the following equation: aBA=(jejunal AUC(0-90))/(iv AUC(0-90))*(iv dose/jejunal dose). Data are presented as Mean±SD (n≥5 rats per group).
(§3) The levels of dextran absorption from rat jejunum after administration of dextran in formulation were compared to the levels of dextran absorbed after intravenous administration. Exposure values, AUC (0-90), were determined for jejunal and intravenous administration and the absolute bioavailability (aBA) determined according to the following equation: aBA=(jejunal AUC(0-90))/(iv AUC(0-90))*(iv dose/jejunal dose). Data are presented as Mean±SD (n≥5 rats per group).
(§4) The levels of dextran absorption from rat jejunum after administration of dextran in formulation were compared to the levels of dextran absorbed after intravenous administration. Exposure values, AUC (0-90), were determined for jejunal and intravenous administration and the absolute Bioavailability (aBA) was determined according to the following equation: aBA=(jejunal AUC(0-90))/(iv AUC(0-90))*(iv dose/jejunal dose). Data are presented as Mean±SD (n≥5 rats per group).

[2] = rat, in vivo
Description: as §1, §2, §3, §4

[3] = Capsule administration to small intestine of non-anesthetized pigs (Nipple Valve gastric bypass); conditions: pig, in vivo; read-out: level of bioavailability in pigs, extrapolated from rat results
Text: In order to test the activity of the formulations of the invention when administrated in capsules, an animal model allowing capsule administration to pigs (domestic swine) was established. In order to bypass the stomach and allow direct administration of capsules to the small intestine of the pig, a well established model in dogs (“Nipple Valve model”; Wilsson-Rahmberg & O. Jonsson, Laboratory Animals (1997), 31, 231-240) was adapted to the commercial pig.
The two octreotide formulations shown below in Table 37 were prepared. The octreotide (x) formulation was prepared essentially as described above for the basic formulation wherein the hydrophilic fraction has been simplified to omit MgCl2 and MC400. […] The capsules were not enteric-coated i.e. they were uncoated.
The formulations described above in Table 37 were administered directly to the small intestine of the non-anesthetized pigs via the gastric bypass described above, and plasma octreotide levels were measured post-administration. Exposure values, AUC were determined for the formulations. The % BA was calculated compared to the exposure to octreotide after subcutaneous administration.

blood glucose = experiment: Blood glucose after rectal administration of insulin to rats; assay type: in vivo; conditions: rat, insulin 328 μg/rat
Text: The data of FIG. 3 is presented as MEAN±SD, n=5.

[4] = rat, in vivo; remark: listed apart in the source
Description: Rats were anesthetized and were administered 100 μL of bulk drug formulation containing an insulin dose of 328 μg/rat (9 IU/rat). Blood samples were collected at 0, 3, 6, 10, 15, 25, 30, 40, 60 and 90 minutes post administration and serum was prepared for determination of human insulin by an immunoassay kit with no cross reactivity between rat and human insulin.
Rats were anesthetized and administered 100 μL of test article (insulin in formulation or insulin in PBS) containing an insulin dose of 328 μg/rat (9 IU/rat). Blood samples were collected at 0, 3, 6, 10, 15, 25, 30, 40, 60 and 90 minutes post administration. Glucose level was immediately determined with a glucometer and serum was prepared for determination of human insulin by an immunoassay kit with no cross reactivity between rat and human insulin.
Blood samples were collected at 0, 3, 6, 10, 15, 25, 30, 40, 60 and 90 minutes post rectal administration and at 0, 15, 30, 45, 60, 90 min, 2, 3, and 4 hours post SC administration. Glucose was immediately determined with a glucometer and insulin by an immunoassay kit. Glucose levels are presented as the percentage form basal levels measured before administration (time 0).
The levels of insulin absorption from rat colon after insulin in formulation administration were compared to the levels of insulin absorbed after SC administration. […]

[5] = rat, in vivo; remark: listed apart in the source
Text: Enteric-coated capsules for rats are not available and therefore stomach bypass enabling direct intra-jejunal administration is needed.
A specialized rat model in which three different cannulas are surgically implanted in anesthetized rats was developed: 1. Jejunal cannula—stomach bypass, enables insulin formulation administration, 2. Portal vein cannula—blood sampling prior to the liver, determine insulin that cross the GI wall into the blood, and 3. Jugular vein cannula—to determine the systemic levels of insulin.
Rats (8 rats per group) were anesthetized and their jejunum exposed by abdominal surgery. The jejunum containing intestinal loop was placed on gauze and kept moist and fully intact throughout the entire study. A temporary cannula was inserted into the jejunum and formulated insulin was administered. Blood was collected from both portal and jugular veins at the same time points, with approximately 4 time points per rat. The MEAN±SD value of each time point was used to create a plasma concentration vs. time curve. AUC was determined and rBA was calculated.

Compound: CN[C@H](CC(C)C)C(=O)N[C@H]1C(=O)N[C@@H](CC(N)=O)C(=O)N[C@H]2C(=O)N[C@H]3C(=O)N[C@H](C(=O)N[C@H](C(=O)O)c4cc(O)cc(O)c4-c4cc3ccc4O)[C@H](O)c3ccc(c(Cl)c3)Oc3cc2cc(c3O[C@@H]2O[C@H](CO)[C@@H](O)[C@H](O)[C@H]2O[C@H]2C[C@](C)(N)[C@H](O)[C@H](C)O2)Oc2ccc(cc2Cl)[C@H]1O [vancomycin in saline solution, vancomycin]
- bioavailability / penetration to the bloodstream [1]: no BA was detected

- bioavailability / penetration to the bloodstream [2]: no penetration to the bloodstream
Compound: CC[C@H](C)[C@H](NC(=O)[C@H](CCC(=O)O)NC(=O)[C@H](CO)NC(=O)[C@@H](NC(=O)[C@@H](N)CO)C(C)C)C(=O)N[C@@H](CCC(N)=O)C(=O)N[C@@H](CC(C)C)C(=O)N[C@@H](CCSC)C(=O)N[C@@H](Cc1cnc[nH]1)C(=O)N[C@@H](CC(N)=O)C(=O)N[C@@H](CC(C)C)C(=O)NCC(=O)N[C@@H](CCCCN)C(=O)N[C@@H](Cc1cnc[nH]1)C(=O)N[C@@H](CC(C)C)C(=O)N[C@@H](CC(N)=O)C(=O)N[C@@H](CO)C(=O)N[C@@H](CCSC)C(=O)N[C@@H](CCC(=O)O)C(=O)N[C@@H](CCCN=C(N)N)C(=O)N[C@H](C(=O)N[C@@H](CCC(=O)O)C(=O)N[C@@H](Cc1c[nH]c2ccccc12)C(=O)N[C@@H](CC(C)C)C(=O)N[C@@H](CCCN=C(N)N)C(=O)N[C@@H](CCCCN)C(=O)N[C@@H](CCCCN)C(=O)N[C@@H](CC(C)C)C(=O)N[C@@H](CCC(N)=O)C(=O)N[C@@H](CC(=O)O)C(=O)N[C@H](C(=O)N[C@@H](Cc1cnc[nH]1)C(=O)N[C@@H](CC(N)=O)C(=O)N[C@@H](Cc1ccccc1)C(=O)O)C(C)C)C(C)C [teriparatide in saline, teriparatide]

Compound: C[C@@H](O)[C@@H]1NC(=O)[C@H](CCCCN)NC(=O)[C@@H](Cc2c[nH]c3ccccc23)NC(=O)[C@H](Cc2ccccc2)NC(=O)[C@@H](NC(=O)[C@H](N)Cc2ccccc2)CSSC[C@@H](C(=O)N[C@H](CO)[C@@H](C)O)NC1=O [octreotide]
- bioavailability [3]: ~0.1%

Compound: insulin in PBS: human insulin solubilized in PBS
- glucose reduction (blood glucose): only a very slight glucose reduction

Compound: hGH in PBS: human growth hormone in PBS, control
- penetration to the bloodstream [4]: no penetration to the bloodstream

Compound: CCNC(=O)[C@@H]1CCCN1C(=O)[C@H](CCCNC(=N)N)NC(=O)[C@H](CC(C)C)NC(=O)[C@@H](CC(C)C)NC(=O)[C@H](Cc1ccc(O)cc1)NC(=O)[C@H](CO)NC(=O)[C@H](Cc1c[nH]c2ccccc12)NC(=O)[C@H](Cc1c[nH]cn1)NC(=O)[C@@H]1CCC(=O)N1 [leuprolide in PBS, leuprolide]
- bioavailability / penetration to the bloodstream [2]: negligible penetration to the bloodstream

Compound: insulin control: unformulated insulin control given intra-jejunally
- insulin absorbance [5]: minimal insulin absorbance
